Test results as given in patent US20230373985A1 (Origenis Gmbh, priority 2020, published 2023).

Tests used:
[1] = biological target: T1, wt human TYK2, catalytic site (Homo sapiens, UniProt P29597); assay: HTRF KinEASE assay, TYK2; format: biochemical; conditions: 1 μM ATP; read-out: IC50, Activity Toward TYK2
T1 construct: wt human TYK2, catalytic site; purchased SignalChem
T1 sequence (P29597 897-1176 limits assumed): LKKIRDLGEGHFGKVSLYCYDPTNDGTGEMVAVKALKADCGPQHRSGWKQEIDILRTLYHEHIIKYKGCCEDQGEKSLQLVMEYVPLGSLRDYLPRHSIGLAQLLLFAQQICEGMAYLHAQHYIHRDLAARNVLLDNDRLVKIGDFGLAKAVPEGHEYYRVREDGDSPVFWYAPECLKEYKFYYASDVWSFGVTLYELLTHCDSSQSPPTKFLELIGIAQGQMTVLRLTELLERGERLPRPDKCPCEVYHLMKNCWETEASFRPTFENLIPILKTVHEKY
In short: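 HTRF KinEASE-TK readout with 1 μM biotinylated TK substrate in 1× kinase buffer, ≥30 min at room temperature, then antibody/streptavidin-XL665 detection for 60 min. TYK2 at 2 nM with 1 μM ATP; JAK2 at 1 nM with 100 μM ATP. Analysis uses emission ratios.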

[2] = biological target: T2, wt human LRRK2, catalytic site (Homo sapiens, UniProt Q5S007); assay: TR-FRET LanthaScreen Eu Kinase Binding Assay, LRRK2 wt; conditions: one range stated for wt and G2019, read-out: IC50, Activity Toward LRRK2(Wt)
T2 construct: 5 nM wt human LRRK2, catalytic site; purchased ThermoFisher
T2 sequence (Q5S007 970-2527 limits assumed): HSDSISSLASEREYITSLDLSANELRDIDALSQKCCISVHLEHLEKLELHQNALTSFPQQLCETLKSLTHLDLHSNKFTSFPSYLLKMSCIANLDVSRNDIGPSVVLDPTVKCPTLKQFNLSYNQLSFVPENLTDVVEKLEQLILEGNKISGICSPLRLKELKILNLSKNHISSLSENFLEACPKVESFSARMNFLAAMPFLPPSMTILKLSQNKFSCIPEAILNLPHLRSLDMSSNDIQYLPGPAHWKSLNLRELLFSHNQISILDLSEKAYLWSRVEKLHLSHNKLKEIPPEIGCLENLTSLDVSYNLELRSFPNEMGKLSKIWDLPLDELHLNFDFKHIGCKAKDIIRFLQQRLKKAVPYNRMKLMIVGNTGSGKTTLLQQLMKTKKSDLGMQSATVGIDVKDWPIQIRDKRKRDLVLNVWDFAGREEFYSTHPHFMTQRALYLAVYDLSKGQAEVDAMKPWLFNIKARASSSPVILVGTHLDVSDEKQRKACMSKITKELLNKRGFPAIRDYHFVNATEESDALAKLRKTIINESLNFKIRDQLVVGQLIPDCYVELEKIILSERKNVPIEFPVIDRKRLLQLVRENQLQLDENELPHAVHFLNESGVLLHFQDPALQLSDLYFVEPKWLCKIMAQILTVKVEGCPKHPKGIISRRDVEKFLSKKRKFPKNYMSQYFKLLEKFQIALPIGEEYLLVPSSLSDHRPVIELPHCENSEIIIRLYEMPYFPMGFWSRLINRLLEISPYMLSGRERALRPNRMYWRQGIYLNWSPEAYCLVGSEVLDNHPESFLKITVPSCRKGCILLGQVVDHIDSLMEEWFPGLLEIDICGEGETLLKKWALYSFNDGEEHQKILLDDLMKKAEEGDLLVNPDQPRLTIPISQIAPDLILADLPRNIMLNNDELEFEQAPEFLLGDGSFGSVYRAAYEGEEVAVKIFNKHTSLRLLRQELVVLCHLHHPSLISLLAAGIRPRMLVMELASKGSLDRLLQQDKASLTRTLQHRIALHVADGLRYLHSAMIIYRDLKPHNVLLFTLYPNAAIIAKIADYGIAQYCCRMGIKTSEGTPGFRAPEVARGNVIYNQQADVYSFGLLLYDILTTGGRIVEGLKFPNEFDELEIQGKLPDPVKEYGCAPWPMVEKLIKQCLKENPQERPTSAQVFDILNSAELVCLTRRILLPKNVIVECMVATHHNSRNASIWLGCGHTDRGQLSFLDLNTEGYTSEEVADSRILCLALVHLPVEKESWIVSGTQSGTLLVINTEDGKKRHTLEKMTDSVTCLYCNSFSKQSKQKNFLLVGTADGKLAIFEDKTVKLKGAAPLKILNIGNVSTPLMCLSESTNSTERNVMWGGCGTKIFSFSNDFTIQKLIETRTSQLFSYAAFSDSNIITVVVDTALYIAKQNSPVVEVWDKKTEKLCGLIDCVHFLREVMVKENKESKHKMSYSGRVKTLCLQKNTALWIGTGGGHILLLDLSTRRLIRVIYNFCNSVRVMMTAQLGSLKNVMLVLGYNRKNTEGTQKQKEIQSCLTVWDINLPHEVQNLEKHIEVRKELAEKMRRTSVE
Procedure: (§1) The basic protocol for TR-FRET LanthaScreen Eu Kinase Binding Assay inhibitor studies were performed as follows. LanthaScreen Kinase Binding Assays (ThermoFisher/USA) to evaluate inhibitors were performed by addition of 5 μL of test compound in corresponding DMSO dilutions/5 μl of kinase/antibody mixture, 5 μL of tracer into 384 well small volume plates. After incubation for 1 hour at room temperature, plates were read. Data analysis of emission ratios was according LanthaScreen Eu Kinase Binding Assay protocol.
(§2) Kinase and assay components were adjusted to final concentrations according to kit protocol. For LRRK2: 5 nM wt human LRRK2, catalytic site, or G2019S human LRRK2, catalytic site (ThermoFisher/USA), 2 nM Eu-Anti-GST Antibody, 10 nM Kinase Tracer 236 in 1× Kinase Buffer A. For NUAK1: 8 nM wt human NUAK1, full length (ThermoFisher/USA), 2 nM Eu-Anti-His Antibody, 5 nM Kinase Tracer 236 in 1× Kinase Buffer A.

[3] = biological target: T3, G2019S human LRRK2, catalytic site (Homo sapiens, UniProt Q5S007, G2019S); assay: TR-FRET LanthaScreen Eu Kinase Binding Assay, LRRK2 G2019S; conditions: LRRK2(G2019); one range stated for wt and G2019; read-out: IC50, Activity Toward LRRK2(G2019)
T3 construct: G2019S human LRRK2, catalytic site; purchased ThermoFisher
T3 sequence (Q5S007 970-2527 G2019S limits assumed): as the sequence (Q5S007 970-2527 limits assumed) above, with G1050S counted along it
Procedure: as §1, §2

[4] = biological target: T4, wt human JAK1, catalytic site (Homo sapiens, UniProt P23458); assay: HTRF KinEASE assay, JAK1; format: biochemical; conditions: 2.5 μM ATP; read-out: IC50, Activity Toward JAK1
T4 construct: wt human JAK1, catalytic site; purchased ThermoFisher
T4 sequence (P23458 875-1153 limits assumed): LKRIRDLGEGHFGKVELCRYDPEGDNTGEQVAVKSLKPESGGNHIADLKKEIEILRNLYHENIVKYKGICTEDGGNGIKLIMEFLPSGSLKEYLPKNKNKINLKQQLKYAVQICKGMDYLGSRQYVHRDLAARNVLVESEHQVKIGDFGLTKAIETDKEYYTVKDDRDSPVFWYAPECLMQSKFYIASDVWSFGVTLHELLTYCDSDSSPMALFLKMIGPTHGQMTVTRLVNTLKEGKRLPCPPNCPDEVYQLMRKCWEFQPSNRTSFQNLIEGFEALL
In short: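 Two-step HTRF KinEASE assay: compound, kinase/biotinylated TK substrate and ATP were incubated at least 30 min at room temperature. Antibody plus streptavidin-XL665 was then added and plates were read after 60 min. Inhibition was derived from emission ratios according to the kit protocol.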

SMILES	IC50 [1] [nM]	IC50 [2] [nM]	IC50 [3] [nM]	IC50 [4] [nM]
Cc1ccnc(Nc2cn(-c3c(F)cccc3F)nc2C(N)=O)c1 [compound 10, 1-(2,6-difluorophenyl)-4-((4-methylpyridin-2-yl)amino)-1H-pyrazole-3-carboxamide]	100 to 1000	100 to 1000	100 to 1000	
CC(C)(C)NC(=O)c1ccc(Nc2cn(-c3c(F)cccc3F)nc2C(N)=O)cn1 [compound 23, N-(tert-butyl)-5-((3-carbamoyl-1-(2,6-difluorophenyl)-1H-pyrazol-4-yl)amino)picolinamide]	100 to 1000	100 to 1000	100 to 1000	
COc1ccccc1-c1ccc(Nc2cn(-c3c(Cl)cccc3Cl)nc2C(N)=O)cn1 [compound 344, 1-(2,6-dichlorophenyl)-4-((6-(2-methoxyphenyl)pyridin-3-yl)amino)-1H-pyrazole-3-carboxamide]	100 to 1000	100 to 1000	100 to 1000	
NC(=O)c1nn(-c2c(Cl)cccc2Cl)cc1Nc1ccc(C(=O)N2CC[C@@H](F)C2)cn1 [compound 443, (R)-1-(2,6-dichlorophenyl)-4-((5-(3-fluoropyrrolidine-1-carbonyl)pyridin-2-yl)amino)-1H-pyrazole-3-carboxamide]	10 to 100			10 to 100
N#CC1CN(C(=O)c2ccc(Nc3cn(-c4c(Cl)cccc4Cl)nc3C(N)=O)nc2)C1 [compound 444, 4-((5-(3-cyanoazetidine-1-carbonyl)pyridin-2-yl)amino)-1-(2,6-dichlorophenyl)-1H-pyrazole-3-carboxamide]	10 to 100			10 to 100
Cn1nnnc1-c1ccc(Nc2cn(-c3c(Cl)cccc3Cl)nc2C(N)=O)nc1 [compound 445, 1-(2,6-dichlorophenyl)-4-((5-(1-methyl-1H-tetrazol-5-yl)pyridin-2-yl)amino)-1H-pyrazole-3-carboxamide]	10 to 100			10 to 100
NC(=O)c1nn(-c2c(Cl)cccc2Cl)cc1Nc1ccc(-c2nnc3cncc(Cl)n23)nc1 [compound 447, 4-((6-(5-chloro-[1,2,4]triazolo[4,3-a]pyrazin-3-yl)pyridin-3-yl)amino)-1-(2,6-dichlorophenyl)-1H-pyrazole-3-carboxamide]	10 to 100			10 to 100
CN1CCCN(C(=O)c2ccc(Nc3cn(-c4c(Cl)cccc4Cl)nc3C(N)=O)nc2)CC1 [compound 448, 1-(2,6-dichlorophenyl)-4-((5-(4-methyl-1,4-diazepane-1-carbonyl)pyridin-2-yl)amino)-1H-pyrazole-3-carboxamide]	100 to 1000			10 to 100
NC(=O)c1nn(-c2c(Cl)cccc2Cl)cc1Nc1ccc(C(=O)N2CC(F)C2)cn1 [compound 449, 1-(2,6-dichlorophenyl)-4-((5-(3-fluoroazetidine-1-carbonyl)pyridin-2-yl)amino)-1H-pyrazole-3-carboxamide]	100 to 1000			100 to 1000
NC(=O)c1nn(-c2c(Cl)cccc2Cl)cc1Nc1ccc(CN2CCS(=O)(=O)CC2)nc1 [compound 455, 1-(2,6-dichlorophenyl)-4-((6-((1,1-dioxidothiomorpholino)methyl)pyridin-3-yl)amino)-1H-pyrazole-3-carboxamide]	10 to 100			100 to 1000
N#Cc1cccc(Cl)c1-n1cc(Nc2ccc(C(=O)N3CCOCC3)cc2)c(C(N)=O)n1 [compound 458, 1-(2-chloro-6-cyanophenyl)-4-((4-(morpholine-4-carbonyl)phenyl)amino)-1H-pyrazole-3-carboxamide]	< 10			10 to 100
N#Cc1cccc(Cl)c1-n1cc(Nc2ccc(C(=O)N3CC[C@@H](F)C3)cc2)c(C(N)=O)n1 [compound 459, 1-(2-Chloro-6-cyano-phenyl)-4-[4-((R)-3-fluoro-pyrrolidine-1-carbonyl)-phenylamino]-1H-pyrazole-3-carboxylic acid amide]	< 10			10 to 100
CC(F)(F)c1nnnn1-c1ccc(Nc2cn(-c3c(Cl)cccc3Cl)nc2C(N)=O)cn1 [compound 460, 1-(2,6-dichlorophenyl)-4-((6-(5-(1,1-difluoroethyl)-1H-tetrazol-1-yl)pyridin-3-yl)amino)-1H-pyrazole-3-carboxamide]	100 to 1000			100 to 1000
NC(=O)c1nn(-c2c(Cl)cccc2Cl)cc1Nc1cnn(CC(=O)N2CCOCC2)c1 [compound 461, 1-(2,6-dichlorophenyl)-4-((1-(2-morpholino-2-oxoethyl)-1H-pyrazol-4-yl)amino)-1H-pyrazole-3-carboxamide]	10 to 100			10 to 100
COC(=O)Cn1cc(Nc2cn(-c3c(Cl)cccc3Cl)nc2C(N)=O)cn1 [compound 462, methyl_2-(4-((3-carbamoyl-1-(2,6-dichlorophenyl)-1H-pyrazol-4-yl)amino)-1H-pyrazol-1-yl)acetate]	100 to 1000			10 to 100
NC(=O)c1nn(-c2c(Cl)cccc2Cl)cc1Nc1ccc(C(=O)N2CCS(=O)(=O)CC2)nc1 [compound 463, 1-(2,6-dichlorophenyl)-4-((6-(1,1-dioxidothiomorpholine-4-carbonyl)pyridin-3-yl)amino)-1H-pyrazole-3-carboxamide]	< 10			10 to 100
CC1(C)CN(C(=O)c2ccc(Nc3cn(-c4c(Cl)cccc4Cl)nc3C(N)=O)cn2)C1 [compound 464, 1-(2,6-dichlorophenyl)-4-((6-(3,3-dimethylazetidine-1-carbonyl)pyridin-3-yl)amino)-1H-pyrazole-3-carboxamide]	10 to 100			100 to 1000
NC(=O)c1nn(-c2c(Cl)cccc2Cl)cc1Nc1ccc(C(=O)N2CCSCC2)cc1 [compound 467, 1-(2,6-dichlorophenyl)-4-((4-(thiomorpholine-4-carbonyl)phenyl)amino)-1H-pyrazole-3-carboxamide]	< 10			< 10
N=S1(=O)CCN(C(=O)c2ccc(Nc3cn(-c4c(Cl)cccc4Cl)nc3C(N)=O)cc2)CC1 [compound 468, 1-(2,6-dichlorophenyl)-4-((4-(1-imino-1-oxidothiomorpholine-4-carbonyl)phenyl)amino)-1H-pyrazole-3-carboxamide]	< 10			< 10
NC(=O)c1nn(-c2c(Cl)cccc2Cl)cc1Nc1cnn(CC(=O)N2CCS(=O)(=O)CC2)c1 [compound 469, 1-(2,6-dichlorophenyl)-4-((1-(2-(1,1-dioxidothiomorpholino)-2-oxoethyl)-1H-pyrazol-4-yl)amino)-1H-pyrazole-3-carboxamide]	10 to 100			10 to 100
Cc1cc2nnc(-c3ccc(Nc4cn(-c5c(Cl)cccc5Cl)nc4C(N)=O)cn3)n2c(C)n1 [compound 470, 1-(2,6-dichlorophenyl)-4-((6-(5,7-dimethyl-[1,2,4]triazolo[4,3-c]pyrimidin-3-yl)pyridin-3-yl)amino)-1H-pyrazole-3-carboxamide]	100 to 1000			100 to 1000
NC(=O)c1nn(-c2c(Cl)cccc2Cl)cc1Nc1ccc(-c2nnc3cccc(C(F)(F)F)n23)nc1 [compound 471, 1-(2,6-dichlorophenyl)-4-((6-(5-(trifluoromethyl)-[1,2,4]triazolo[4,3-a]pyridin-3-yl)pyridin-3-yl)amino)-1H-pyrazole-3-carboxamide]	100 to 1000			100 to 1000
Cc1cccc2ncc(-c3ccc(Nc4cn(-c5c(Cl)cccc5Cl)nc4C(N)=O)cn3)n12 [compound 473, 1-(2,6-dichlorophenyl)-4-((6-(5-methylimidazo[1,2-a]pyridin-3-yl)pyridin-3-yl)amino)-1H-pyrazole-3-carboxamide]	10 to 100			10 to 100
Cc1csc2nnc(-c3ccc(Nc4cn(-c5c(Cl)cccc5Cl)nc4C(N)=O)cn3)n12 [compound 475, 1-(2,6-dichlorophenyl)-4-((6-(5-methylthiazolo[2,3-c][1,2,4]triazol-3-yl)pyridin-3-yl)amino)-1H-pyrazole-3-carboxamide]	100 to 1000			100 to 1000
N#Cc1cccc2nnc(-c3ccc(Nc4cn(-c5c(Cl)cccc5Cl)nc4C(N)=O)cn3)n12 [compound 476, 4-((6-(5-cyano-[1,2,4]triazolo[4,3-a]pyridin-3-yl)pyridin-3-yl)amino)-1-(2,6-dichlorophenyl)-1H-pyrazole-3-carboxamide]	100 to 1000			10 to 100
